# Laboratory results reported in patent US20070134657A1, “Methods and compositions relating to gradient exposed cells” (GENERAL HOSPITAL CORPORATION, THE, priority 2002, published 2007).
# How the values were obtained:
# human neutrophils = assay: Effect of signaling pathway inhibitors on directional neutrophil migration in IL-8 gradients (microfluidic device); type: cell-based; conditions: pretreated cells; IL-8 gradients in which chemotaxis and fugetaxis were seen
# From the text: Microfluidic Migration Assay and Timelapse Microscopy: Neutrophils (1×10^3 cells) were placed uniformly across the migration channel and allowed to migrate under a linear gradient of human Interleukin-8 (72 a.a.; PeproTech, Rocky Hill, N.J.) in IMDM with 0.5% (w/v) FCS flowing at 0.1 mm/sec. […] Brightfield images were taken every 30 seconds using a C4742-95 Hamamatsu digital camera (Hamamatsu, Japan) controlled by IPLab 3.6.1 (Scanalytics, Fairfax, Va.). Cell movement was always observed at a set point along the migration channel. Gradients were also calibrated at this set point. Migration was quantified for all cells across the gradient.
# Signaling Pathway Inhibitors: Cells were treated with pertussis toxin (100 ng/mL; 30 minutes at 37° C.), wortmannin (1 μM, 10 μM; 20 minutes at 37° C., 8-Br-cAMP (1 mM; 15 minutes at room temperature), 8-Br-cGMP (1 mM; 15 minutes at room temperature) (Sigma-Aldrich), or the CXCR2 non-peptide antagonist, SB225002 (1 pM, 100 pM, 1 nM, or 1 μM for 15 minutes at 37° C.; Calbiochem, Calif.). Immediately after treatment cells were seeded in migration channel of the microfluidic device and allowed to migrate as described above.
# Since receptor occupancy is known to play a role in directional decision making and gradient sensing in the context of chemotaxing eukaryotic cells, it was postulated that chemokine receptor occupancy by a chemokine might also play a critical role in the decision of a cell to move up or down a chemokine gradient. Thus, a SB25002, the specific non-peptide antagonist of the IL-8 receptor, CXCR2 was utilized to examine this postulate. Neutrophils were pretreated with SB225002 at concentrations between 1 pM and 1 μM and then exposed to 0 to 1.2 μM gradients of IL-8 in microfabricated devices as described above. Videos of cell migration were analysed using MetaMorph and MathLab software to generate normalized angular frequencies determined for cells migrating in each of the three sectors of the gradient. The absence of inhibitor generates a normalized angular frequency of 1.0 whereas inhibition of fugetactic or chemotactic angular frequencies results in a normalized frequency of <1.0 and augmentation of either directional response results in a value greater than 1. This analysis allows to precisely quantitate the effect of a given concentration of inhibitor on the directional decision of the cell to move up or down a gradient. […] Furthermore, although IL-8 binds to both CXCR2 and CXCR1 on the cell surface, of the human neutrophil bi-directional signaling was evidently critically dependent on CXCR2.
# It had been previously shown that the signaling pathway for chemotaxis is distinct from that for chemorepulsion or fugetaxis. […] The study of neutrophil migration in microfabricated devices allows to examine precisely the effects of these inhibitors on quantitative parameters of cell migration including the directional bias of cells in the context of precisely defined and stable chemokine gradients. Primary human neutrophils were pretreated with known inhibitors of the chemokine signal transduction pathway including pertussis toxin, wortmannin, genistein, 8-Br-cAMP and 8-Br-cGMP and then exposed to IL-8 gradients in which chemotaxis and fugetaxis were seen. The effect of the inhibitor on directional migration towards or away from the chemokine was quantitated by determining the directional motility index of cells migrating in the context of these gradients. Movement vector angles corresponding to movement up the gradient (30 to 150 degrees—see FIG. 13) were defined as chemotactic and measured movement vector angles corresponding to movement down the gradient (210 to 330 degrees—see figure) were defined as fugetactic. The directional choice of cells to move up or down a chemokine gradient were therefore compared in the presence and the absence of an inhibitor. […]
# T-cell = conditions: response to SDF-1; cited from earlier work
Compound,"effect on neutrophil chemotaxis (angular frequency, movement up the gradient) (human neutrophils)","effect on neutrophil fugetaxis (angular frequency, movement down the gradient) (human neutrophils)","sensitivity of T-cell fugetaxis to inhibition, compared with chemotaxis (T-cell)","sensitivity of T-cell chemotaxis to inhibition, compared with fugetaxis (T-cell)"
Nc1ncnc2c1nc(Br)n2[C@@H]1O[C@@H]2COP(=O)(O)O[C@H]2[C@H]1O [8-Br-cAMP],augmented,selectively inhibited,differentially more sensitive to inhibition,
O=c1c(-c2ccc(O)cc2)coc2cc(O)cc(O)c12 [genistein],,,,differentially more sensitive to inhibition
